Experimental data taken from US20060275362A1, “Rapidly-dissolving pharmaceutical composition for inhibiting ovulation” (priority 2005, published 2006).

Assay: Effect of Tween 80 on the solubility of drospirenone in water
Type: physicochemical
Details: Solubility enhancer Tween 80 (Polysorbate 80), drug:enhancer 1:9 parts by weight, agitated approximately 22 hours, versus water alone

Structure (SMILES): C[C@]12CCC(=O)C=C1[C@@H]1C[C@@H]1[C@H]1[C@@H]3[C@@H]4C[C@@H]4[C@@]4(CCC(=O)O4)[C@@]3(C)CC[C@@H]12 [Drospirenone, (2′S, 6R, 7R, 8R, 9S, 10R, 13S, 14S, 15S, 16S)-1,3′, 4′, 6,7,8,9, 10, 11, 12, 13, 14, 15, 16, 20, 21-hexadecahydro-10, 13-dimethylspiro[17H-dicyclopropa[6,7:15,16]cyclopenta[a]phenanthrene-17,2′(5′H)-furan]-3,5′(2H)-dione]
- % Increase in the Solubility of Drospirenone as Determined by HPLC: 42%
